According to the kinase profiling compilation of Christmann-Franck et al. (2016):

How the values were obtained:
Experiment in all cases: KINOMEscan competition binding
Conditions in all cases: compound 10.0 µM
[1] = molecular target: AAK1 (human) (UniProt Q2M2I8)
[2] = molecular target: ABL2 (human) (UniProt P42684)
[3] = molecular target: ACVR1 (human) (UniProt Q04771)
[4] = molecular target: AXL (human) (UniProt P30530)
[5] = molecular target: CAMK1G (human) (UniProt Q96NX5)
[6] = molecular target: CDC2L2 (human) (UniProt Q9UQ88)
[7] = molecular target: CDK9 (human) (UniProt P50750)
[8] = molecular target: CSNK1A1L (human) (UniProt Q8N752)
[9] = molecular target: CSNK1G1 (human) (UniProt Q9HCP0)
[10] = molecular target: EPHA5 (human) (UniProt P54756)
[11] = molecular target: FGFR4 (human) (UniProt P22455)
[12] = tested on: FLT3 (human), P36888 [N841I]
[13] = molecular target: GSK3A (human) (UniProt P49840)
[14] = molecular target: JAK1 JH1 catalytic (human) (UniProt P23458)
[15] = molecular target: LATS1 (human) (UniProt O95835)
[16] = molecular target: LYN (human) (UniProt P07948)
[17] = molecular target: MAP2K2 (human) (UniProt P36507)
[18] = molecular target: MAP3K12 (human) (UniProt Q12852)
[19] = molecular target: MAP3K3 (human) (UniProt Q99759)
[20] = molecular target: MAP3K4 (human) (UniProt Q9Y6R4)
[21] = molecular target: MAP4K5 (human) (UniProt Q9Y4K4)
[22] = molecular target: MAPK11 (human) (UniProt Q15759)
[23] = molecular target: MAPK8 (human) (UniProt P45983)
[24] = molecular target: NUAK1 (human) (UniProt O60285)
[25] = molecular target: PAK1 (human) (UniProt Q13153)
[26] = molecular target: PIK3C2B (human) (UniProt O00750)
[27] = molecular target: PIP4K2B (human) (UniProt P78356)
[28] = molecular target: PRKACA (human) (UniProt P17612)
[29] = molecular target: PRKX (human) (UniProt P51817)
[30] = molecular target: RET (human) (UniProt P07949)
[31] = molecular target: RPS6KA2 KD2 (human) (UniProt Q15349)
[32] = molecular target: RPS6KA3 KD1 (human) (UniProt P51812)
[33] = molecular target: SIK2 (human) (UniProt Q9H0K1)
[34] = molecular target: SRPK3 (human) (UniProt Q9UPE1)
[35] = molecular target: STK32B (human) (UniProt Q9NY57)
[36] = molecular target: TAOK1 (human) (UniProt Q7L7X3)
[37] = molecular target: TNIK (human) (UniProt Q9UKE5)
[38] = molecular target: TNNI3K (human) (UniProt Q59H18)
[39] = molecular target: YES1 (human) (UniProt P07947)
[40] = molecular target: MST1R (human) (UniProt Q04912)

Sequence of LYN (human) (P07948 whole entry, looked up): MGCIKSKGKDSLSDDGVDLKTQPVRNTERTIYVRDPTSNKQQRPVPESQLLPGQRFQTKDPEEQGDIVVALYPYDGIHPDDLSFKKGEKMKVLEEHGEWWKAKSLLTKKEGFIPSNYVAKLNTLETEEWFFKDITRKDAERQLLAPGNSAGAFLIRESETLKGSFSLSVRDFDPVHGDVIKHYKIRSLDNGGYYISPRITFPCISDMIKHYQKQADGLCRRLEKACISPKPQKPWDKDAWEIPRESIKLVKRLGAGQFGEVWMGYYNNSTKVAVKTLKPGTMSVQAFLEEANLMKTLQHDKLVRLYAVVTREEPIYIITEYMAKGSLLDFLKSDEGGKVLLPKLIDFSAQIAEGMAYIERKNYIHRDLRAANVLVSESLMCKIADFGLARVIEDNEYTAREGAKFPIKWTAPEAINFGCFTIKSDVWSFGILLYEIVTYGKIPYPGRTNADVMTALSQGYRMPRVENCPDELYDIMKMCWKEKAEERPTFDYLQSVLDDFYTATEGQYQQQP
Sequence of STK32B (human) (Q9NY57 whole entry, looked up): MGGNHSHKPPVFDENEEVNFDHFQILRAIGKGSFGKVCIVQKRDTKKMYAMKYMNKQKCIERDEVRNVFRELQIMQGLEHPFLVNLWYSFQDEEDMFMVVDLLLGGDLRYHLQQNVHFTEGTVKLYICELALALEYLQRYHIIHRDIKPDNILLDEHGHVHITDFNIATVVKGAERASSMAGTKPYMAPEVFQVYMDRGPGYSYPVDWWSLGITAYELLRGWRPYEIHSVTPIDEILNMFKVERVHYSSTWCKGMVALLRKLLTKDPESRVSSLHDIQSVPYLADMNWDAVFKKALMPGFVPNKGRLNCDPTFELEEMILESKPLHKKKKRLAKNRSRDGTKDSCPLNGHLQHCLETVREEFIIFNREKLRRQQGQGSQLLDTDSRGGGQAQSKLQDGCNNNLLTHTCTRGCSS
Sequence of TNNI3K (human) (Q59H18 whole entry, looked up): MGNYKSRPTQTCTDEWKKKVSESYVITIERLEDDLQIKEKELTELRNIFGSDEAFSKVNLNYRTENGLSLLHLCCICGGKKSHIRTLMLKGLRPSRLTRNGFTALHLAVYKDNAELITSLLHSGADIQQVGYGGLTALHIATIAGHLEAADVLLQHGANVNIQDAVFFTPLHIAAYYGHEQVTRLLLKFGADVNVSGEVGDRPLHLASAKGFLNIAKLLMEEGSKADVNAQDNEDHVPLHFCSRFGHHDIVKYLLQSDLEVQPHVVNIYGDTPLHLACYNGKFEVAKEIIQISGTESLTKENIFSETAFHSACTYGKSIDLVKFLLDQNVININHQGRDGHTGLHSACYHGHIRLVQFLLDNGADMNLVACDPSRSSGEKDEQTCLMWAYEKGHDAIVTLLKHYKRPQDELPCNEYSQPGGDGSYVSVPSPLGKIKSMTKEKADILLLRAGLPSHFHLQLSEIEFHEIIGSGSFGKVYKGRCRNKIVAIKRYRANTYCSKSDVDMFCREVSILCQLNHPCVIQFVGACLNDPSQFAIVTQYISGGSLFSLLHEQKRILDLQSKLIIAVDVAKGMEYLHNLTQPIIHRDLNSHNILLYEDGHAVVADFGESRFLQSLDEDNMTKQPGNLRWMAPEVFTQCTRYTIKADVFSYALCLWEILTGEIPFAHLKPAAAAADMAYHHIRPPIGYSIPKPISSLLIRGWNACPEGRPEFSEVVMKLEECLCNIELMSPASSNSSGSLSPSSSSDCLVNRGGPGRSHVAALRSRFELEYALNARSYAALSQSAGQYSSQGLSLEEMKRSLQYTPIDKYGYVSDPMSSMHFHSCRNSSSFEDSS
Sequence of MAP3K12 (human) (Q12852 whole entry, looked up): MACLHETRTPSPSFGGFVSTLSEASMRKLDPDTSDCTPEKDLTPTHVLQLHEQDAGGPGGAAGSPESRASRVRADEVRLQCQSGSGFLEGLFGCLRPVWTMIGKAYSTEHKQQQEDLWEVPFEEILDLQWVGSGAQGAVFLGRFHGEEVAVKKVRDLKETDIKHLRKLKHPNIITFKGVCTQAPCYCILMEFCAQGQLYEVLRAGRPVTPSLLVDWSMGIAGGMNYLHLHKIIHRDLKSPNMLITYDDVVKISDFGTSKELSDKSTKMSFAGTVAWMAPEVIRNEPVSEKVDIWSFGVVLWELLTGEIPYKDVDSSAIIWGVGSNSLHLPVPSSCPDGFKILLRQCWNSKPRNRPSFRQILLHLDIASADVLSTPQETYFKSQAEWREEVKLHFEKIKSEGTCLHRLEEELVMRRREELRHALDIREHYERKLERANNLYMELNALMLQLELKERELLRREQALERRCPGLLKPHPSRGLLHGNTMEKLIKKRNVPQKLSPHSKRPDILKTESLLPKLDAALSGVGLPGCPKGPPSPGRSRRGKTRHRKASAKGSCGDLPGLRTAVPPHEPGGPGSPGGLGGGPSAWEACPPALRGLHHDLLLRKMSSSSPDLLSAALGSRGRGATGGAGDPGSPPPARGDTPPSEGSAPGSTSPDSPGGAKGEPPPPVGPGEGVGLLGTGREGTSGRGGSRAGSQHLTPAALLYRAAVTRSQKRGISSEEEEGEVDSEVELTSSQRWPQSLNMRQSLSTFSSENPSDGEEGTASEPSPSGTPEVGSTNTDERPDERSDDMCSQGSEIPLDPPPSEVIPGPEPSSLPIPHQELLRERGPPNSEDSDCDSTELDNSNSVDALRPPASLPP
Sequence of ABL2 (human) (P42684 whole entry, looked up): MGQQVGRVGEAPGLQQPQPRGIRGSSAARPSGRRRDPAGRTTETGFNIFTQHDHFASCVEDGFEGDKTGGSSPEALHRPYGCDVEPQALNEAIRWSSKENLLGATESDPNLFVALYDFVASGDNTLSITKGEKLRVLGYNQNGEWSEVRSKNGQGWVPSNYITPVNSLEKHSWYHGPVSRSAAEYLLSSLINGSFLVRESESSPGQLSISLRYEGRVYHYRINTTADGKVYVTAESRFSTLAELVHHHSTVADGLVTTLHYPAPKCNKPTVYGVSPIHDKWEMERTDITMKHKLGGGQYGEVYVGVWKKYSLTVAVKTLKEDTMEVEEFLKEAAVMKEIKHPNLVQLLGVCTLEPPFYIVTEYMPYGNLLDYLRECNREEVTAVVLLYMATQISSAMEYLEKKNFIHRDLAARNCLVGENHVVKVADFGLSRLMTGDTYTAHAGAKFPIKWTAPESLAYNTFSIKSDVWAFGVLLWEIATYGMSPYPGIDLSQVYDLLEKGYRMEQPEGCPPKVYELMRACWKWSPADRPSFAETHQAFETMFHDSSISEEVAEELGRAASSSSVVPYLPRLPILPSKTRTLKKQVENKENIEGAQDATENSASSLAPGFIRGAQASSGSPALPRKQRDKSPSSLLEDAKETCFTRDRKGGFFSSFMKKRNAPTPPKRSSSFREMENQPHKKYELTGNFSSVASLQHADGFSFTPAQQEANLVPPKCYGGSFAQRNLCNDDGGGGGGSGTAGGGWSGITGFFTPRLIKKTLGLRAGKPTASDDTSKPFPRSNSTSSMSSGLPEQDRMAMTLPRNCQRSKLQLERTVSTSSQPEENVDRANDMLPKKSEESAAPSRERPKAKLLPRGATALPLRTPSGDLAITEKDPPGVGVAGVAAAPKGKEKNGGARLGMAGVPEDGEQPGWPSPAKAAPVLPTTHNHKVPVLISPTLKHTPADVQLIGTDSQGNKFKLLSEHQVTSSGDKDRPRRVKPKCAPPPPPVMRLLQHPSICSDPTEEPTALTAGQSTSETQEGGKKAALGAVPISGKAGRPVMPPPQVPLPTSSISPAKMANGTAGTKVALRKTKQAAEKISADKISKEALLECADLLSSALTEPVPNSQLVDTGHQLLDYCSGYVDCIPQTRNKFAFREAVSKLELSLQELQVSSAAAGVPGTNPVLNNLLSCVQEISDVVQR
Sequence of PIP4K2B (human) (P78356 whole entry, looked up): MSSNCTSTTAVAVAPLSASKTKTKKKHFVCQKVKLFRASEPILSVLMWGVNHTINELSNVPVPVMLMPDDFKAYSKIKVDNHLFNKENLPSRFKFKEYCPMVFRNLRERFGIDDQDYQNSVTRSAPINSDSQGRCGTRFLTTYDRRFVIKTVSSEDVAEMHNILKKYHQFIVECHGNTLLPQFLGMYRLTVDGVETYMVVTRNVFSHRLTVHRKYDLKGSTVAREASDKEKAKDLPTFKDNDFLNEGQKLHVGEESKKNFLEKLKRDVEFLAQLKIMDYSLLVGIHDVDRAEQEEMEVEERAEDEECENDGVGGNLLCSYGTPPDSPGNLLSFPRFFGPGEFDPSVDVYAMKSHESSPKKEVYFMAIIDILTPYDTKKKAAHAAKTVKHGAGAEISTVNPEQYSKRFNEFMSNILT
Sequence of RPS6KA2 KD2 (human) (Q15349 whole entry, looked up): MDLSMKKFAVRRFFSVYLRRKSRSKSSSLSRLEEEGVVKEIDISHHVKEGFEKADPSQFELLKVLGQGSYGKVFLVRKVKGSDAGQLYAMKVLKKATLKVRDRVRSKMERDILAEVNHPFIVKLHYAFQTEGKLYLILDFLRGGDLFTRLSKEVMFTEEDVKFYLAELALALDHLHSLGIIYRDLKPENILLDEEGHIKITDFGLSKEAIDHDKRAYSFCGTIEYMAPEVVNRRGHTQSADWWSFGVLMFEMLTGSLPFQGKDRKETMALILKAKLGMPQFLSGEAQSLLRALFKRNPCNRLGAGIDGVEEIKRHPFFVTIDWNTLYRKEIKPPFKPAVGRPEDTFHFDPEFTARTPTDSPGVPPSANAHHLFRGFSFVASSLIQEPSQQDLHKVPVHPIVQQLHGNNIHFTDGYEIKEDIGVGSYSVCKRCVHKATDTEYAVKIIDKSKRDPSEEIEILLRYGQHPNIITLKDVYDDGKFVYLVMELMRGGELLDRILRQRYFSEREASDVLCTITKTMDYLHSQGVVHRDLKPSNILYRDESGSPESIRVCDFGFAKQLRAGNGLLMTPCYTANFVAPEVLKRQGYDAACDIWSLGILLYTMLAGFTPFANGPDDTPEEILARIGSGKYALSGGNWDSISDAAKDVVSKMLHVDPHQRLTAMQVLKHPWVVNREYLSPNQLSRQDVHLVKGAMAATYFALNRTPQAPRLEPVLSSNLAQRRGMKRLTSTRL

SMILES | kinase still bound, per cent of control [1] [%] | kinase still bound, per cent of control [2] [%] | kinase still bound, per cent of control [3] [%] | kinase still bound, per cent of control [4] [%] | kinase still bound, per cent of control [5] [%] | kinase still bound, per cent of control [6] [%] | kinase still bound, per cent of control [7] [%] | kinase still bound, per cent of control [8] [%] | kinase still bound, per cent of control [9] [%] | kinase still bound, per cent of control [10] [%] | kinase still bound, per cent of control [11] [%] | kinase still bound, per cent of control [13] [%] | kinase still bound, per cent of control [14] [%] | kinase still bound, per cent of control [15] [%] | kinase still bound, per cent of control [16] [%] | kinase still bound, per cent of control [17] [%] | kinase still bound, per cent of control [18] [%] | kinase still bound, per cent of control [19] [%] | kinase still bound, per cent of control [20] [%] | kinase still bound, per cent of control [21] [%] | further results
Cc1cc([C@@H](C)Nc2ccccc2C(=O)O)c2nc(N3CCOCC3)cc(=O)n2c1 | 95 | 95 | 98 | 86 | 91 | 100 | 100 | 100 | 68 | 99 | 100 | 100 | 100 | 100 | 99 | 100 | 85 | 87 | 100 | 96 | kinase still bound, per cent of control [12]: 44%; kinase still bound, per cent of control [22]: 91%; kinase still bound, per cent of control [23]: 100%; kinase still bound, per cent of control [24]: 100%; kinase still bound, per cent of control [25]: 100%; kinase still bound, per cent of control [26]: 0.35%; kinase still bound, per cent of control [27]: 100%; kinase still bound, per cent of control [28]: 100%; kinase still bound, per cent of control [29]: 91%; kinase still bound, per cent of control [30]: 100%; kinase still bound, per cent of control [31]: 98%; kinase still bound, per cent of control [32]: 91%; kinase still bound, per cent of control [33]: 100%; kinase still bound, per cent of control [34]: 100%; kinase still bound, per cent of control [35]: 71%; kinase still bound, per cent of control [36]: 59%; kinase still bound, per cent of control [37]: 98%; kinase still bound, per cent of control [38]: 88%; kinase still bound, per cent of control [39]: 100%
CCCS(=O)(=O)Nc1ccc(F)c(C(=O)c2c[nH]c3ncc(-c4ccc(Cl)cc4)cc23)c1F | 100 | 32 | 100 | 8.4 | 92 | 91 | 100 | 100 | 100 | 98 | 100 | 54 | 28 | 100 | 16 | 5.4 | 62 | 82 | 63 | 6.4 | kinase still bound, per cent of control [22]: 29%; kinase still bound, per cent of control [23]: 18%; kinase still bound, per cent of control [40]: 100%; kinase still bound, per cent of control [24]: 100%; kinase still bound, per cent of control [25]: 95%; kinase still bound, per cent of control [26]: 100%; kinase still bound, per cent of control [27]: 100%; kinase still bound, per cent of control [28]: 100%; kinase still bound, per cent of control [29]: 100%; kinase still bound, per cent of control [30]: 43%; kinase still bound, per cent of control [31]: 81%; kinase still bound, per cent of control [32]: 76%; kinase still bound, per cent of control [33]: 61%; kinase still bound, per cent of control [34]: 100%; kinase still bound, per cent of control [35]: 100%; kinase still bound, per cent of control [36]: 72%; kinase still bound, per cent of control [37]: 15%; kinase still bound, per cent of control [38]: 65%; kinase still bound, per cent of control [39]: 18%
CCC(=O)N1CCN(c2ccc(-n3c(=O)ccc4cnc5ccc(-c6cnc7ccccc7c6)cc5c43)cc2C(F)(F)F)CC1 | 75 | 99 | 28 | 46 | 74 | 100 | 94 | 81 | 100 | 100 | 21 | 93 | 82 | 100 | 79 | 100 | 100 | 75 | 47 | 8.1 | kinase still bound, per cent of control [12]: 8.8%; kinase still bound, per cent of control [22]: 53%; kinase still bound, per cent of control [23]: 22%; kinase still bound, per cent of control [40]: 55%; kinase still bound, per cent of control [24]: 100%; kinase still bound, per cent of control [25]: 73%; kinase still bound, per cent of control [26]: 25%; kinase still bound, per cent of control [27]: 100%; kinase still bound, per cent of control [28]: 79%; kinase still bound, per cent of control [29]: 83%; kinase still bound, per cent of control [30]: 44%; kinase still bound, per cent of control [31]: 85%; kinase still bound, per cent of control [32]: 38%; kinase still bound, per cent of control [33]: 23%; kinase still bound, per cent of control [35]: 87%; kinase still bound, per cent of control [36]: 58%; kinase still bound, per cent of control [37]: 39%; kinase still bound, per cent of control [38]: 66%; kinase still bound, per cent of control [39]: 74%
